Experimental data reported in US20250345459A1, “COMPOUND OR SALT THEREOF, LIPID COMPOSITION, PHARMACEUTICAL COMPOSITION, AND DELIVERY CARRIER” (FUJIFILM Corporation, priority 2023, published 2025).

Tests used:
[1] = Particle size of EPO mRNA-encapsulating lipid nanoparticles; format: physicochemical; conditions: LNP with neutral lipid DSPC; mixed solution PBS; Lipid/Nucleic acid (wt/wt) 20
Description: (§1) The compounds described in Table 1, the neutral lipid, cholesterol (product name: Cholesterol HP; NIPPON FINE CHEMICAL CO., LTD.), and 1,2-dimyristoyl-rac-glycero-3-(methylpolyoxyethylene 2000) (hereinafter, called DMG-PEG2000) (product name: SUNBRIGHT® GM-020; NOF corporation) were dissolved in ethanol at a molar ratio of ionized lipid:neutral lipid:cholesterol:DMG-PEG2000=50:10:38.5:1.5 mol % such that the total lipid concentration was 12.5 mmol/L, to obtain an oil phase.
(§2) As the neutral lipid, 1,2-distearoyl-sn-glycero-3-phosphocholine (product name: COATSOME® MC-8080; NOF corporation) (hereinafter, DSPC), or L-α-dioleoylphosphatidylethanolamine (hereinafter, DOPE) (product name: COATSOME® MC-8181; NOF corporation) was used.
(§3) EPO mRNA (product name: CleanCap EPO mRNA (5 moU); TriLink) was diluted with 50 mmol/L citrate buffer having a pH 4.0 such that the weight ratio of total lipid concentration to mRNA concentration is about 20:1 to 64:1, thereby obtaining a water phase. Then, the water phase and the oil phase were mixed together using NanoAssemblr (Precision NanoSystems) such that the volume ratio of water phase:oil phase was 3:1. The mixed solution was diluted 2-fold with any of phosphate buffered physiological saline (PBS), water, or a 20 mmol/L Tris buffer solution (pH 7.4) to obtain a dispersion liquid of mRNA lipid nanoparticles. The dispersion liquid was dialyzed with 20 mmol/L Tris buffer solution (pH 7.4) containing 8% sucrose using a dialysis cassette (Slide-A-Lyzer G2, MWCO: 10 kD, Thermo Fisher Scientific) to remove ethanol, thereby obtaining EPO mRNA-encapsulating lipid nanoparticles.
The particle size of the mRNA-encapsulating lipid nanoparticles was measured by 5-fold diluting the dispersion liquid of lipid nanoparticle with phosphate buffered physiological saline (PBS) using a particle size measurement device NanoSaqla (Otsuka Electronics Co., Ltd.).

[2] = tested on: EPO mRNA; assay: mRNA encapsulation rate of mRNA lipid nanoparticles; format: physicochemical; conditions: LNP with neutral lipid DSPC; mixed solution PBS; Lipid/Nucleic acid (wt/wt) 20
Description: as §1, §2, §3
EPO mRNA was diluted with MilliQ water to prepare a diluted sample in 2-fold dilution series from 100 µg/mL to […], and a calibration curve solution was prepared. 50 μL of the calibration curve solution or the mRNA lipid nanoparticles was mixed with 450 μL of methanol to prepare a measurement solution.
The absorbance of each measurement solution at 260 nm and 330 nm was measured using a UV plate reader (Multiskan Go, Thermo Fisher Scientific), the absorbance at 330 nm was subtracted from the absorbance at 260 nm, and the result was defined as the absorbance of each measurement solution. The total […] nucleic acid concentration was calculated from the calibration curve using the absorbance of each sample measurement solution.
The concentration of the outer water phase nucleic acid was quantified by a standard addition method using a QuanT-iT RiboGreen RNA Assay Kit (Thermo Fisher Scientific). First, a 20× TE buffer included in the above kit was diluted with water, thereby obtaining a 1×TE buffer. TE represents Tris/EDTA (ethylenediaminetetraacetic acid). EPO mRNA was diluted with a TE buffer such that the final concentration was 0 to 400 ng/mL to prepare a nucleic acid diluted series. 10 μL of mRNA lipid nanoparticles diluted 5-fold with TE buffer and 90 µL of a nucleic acid dilution series were mixed in a 96-well plate, 100 μL of a Ribogreen reagent diluted 200-fold with TE buffer was added to each well, and then fluorescence (excitation wavelength: 485 nm, fluorescence wavelength: 535 nm) was measured using a fluorescence plate reader (Infinite 200 Pro M nano+, TECAN). From the obtained results, the outer water phase nucleic acid concentration of each measurement solution was calculated according to the standard addition method.
By using the quantification results of the total mRNA concentration and the mRNA concentration in the outer water phase that were obtained through the above steps, the mRNA encapsulation rate of the mRNA lipid nanoparticles was calculated according to the following Equation. […]

[3] = tested on: ICR mice; assay: EPO protein expression in mice after intravenous EPO mRNA lipid nanoparticles; format: in vivo; conditions: mRNA 0.1 mg/kg, plasma 6 hours after administration, neutral lipid DSPC, Lipid/Nucleic acid (wt/wt) 20, Comparative Example 1 is 1
Description: as §1, §2, §3
The dispersion liquid of mRNA lipid nanoparticles prepared in above <Preparation of EPO mRNA-encapsulating lipid nanoparticles> was intravenously administered to ICR mice at a mRNA dosage of 0.1 mg/kg. 6 hours after the administration, blood was collected from the caudal vena cava, thereby obtaining plasma. The human EPO […] was quantified by using the obtained blood plasma and Erythropoietin (EPO) Human Elisa Kit (Abcam.plc). The quantitative value is described as a relative amount of EPO protein in a case where Comparative Example 1 is 1.

Structure (SMILES) | Particle size (nm) [1] | Nucleic acid encapsulation rate (%) [2] | Relative amount of EPO protein (to Comparative Example 1) [3]
CCCCCCN(CCCCCC(=O)OCC(CCCCC)CCCCC)C(=O)OCCN(CCCN(CC)CC)CCOC(=O)N(CCCCCC)CCCCCC(=O)OCC(CCCCC)CCCCC [Example 26, Bis(2-pentylheptyl) 12-(3-(diethylamino)propyl)-7,17-dihexyl-8,16-dioxo-9,15-dioxa-7,12,17-triazatricosanedioate] | 178 nm | 91% | 4.10
CCCCCCCCCCOC(=O)CN(CC(=O)OCCCCCCCCCC)C(=O)OCCN(CCOC(=O)N(CC(=O)OCCCCCCCCCC)CC(=O)OCCCCCCCCCC)CCN(CC)CC [Example 27, Decyl 2-(2-(2-(bis(2-decoxy-2-oxo-ethyl)carbamoyloxy)ethyl-(2-(diethylamino)ethyl)amino)ethoxycarbonyl-(2-decoxy-2-oxo-ethyl)amino)acetate] | 149 nm | 82% | 3.85
CCCCCCCCCCCOC(=O)CN(CC(=O)OCCCCCCCCCCC)C(=O)OCCN(CCOC(=O)N(CC(=O)OCCCCCCCCCCC)CC(=O)OCCCCCCCCCCC)CCN(CC)CC [Example 33, Diundecyl 8-(2-(diethylamino)ethyl)-4,12-dioxo-3,13-bis(2-oxo-2-(undecyloxy)ethyl)-5,11-dioxa-3,8,13-triazapentadecanedioate] | 155 nm | 78% | 2.90
CCCCCCCCN(CCCCC(=O)OCC(CCCCC)CCCCC)C(=O)OCCN(CCCN(CC)CC)CCOC(=O)N(CCCCCCCC)CCCCC(=O)OCC(CCCCC)CCCCC [Example 35, Bis(2-pentylheptyl) 11-(3-(diethylamino)propyl)-6,16-dioctyl-7,15-dioxo-8,14-dioxa-6,11,16-triazahenicosanedioate] | 165 nm | 93% | 6.49
CCCCCCCCN(CCCCC(=O)OCC(CCCCC)CCCCC)C(=O)OCCN(CCCCN(CC)CC)CCOC(=O)N(CCCCCCCC)CCCCC(=O)OCC(CCCCC)CCCCC [Example 36, Bis(2-pentylheptyl) 11-(4-(diethylamino)butyl)-6,16-dioctyl-7,15-dioxo-8,14-dioxa-6,11,16-triazahenicosanedioate] | 145 nm | 93% | 6.40
CCCCCCCCN(CCCCC(=O)OCC(CCCCCC)CCCCCC)C(=O)OCCN(CCCN(CC)CC)CCOC(=O)N(CCCCCCCC)CCCCC(=O)OCC(CCCCCC)CCCCCC [Example 37, Bis(2-hexyloctyl) 11-(3-(diethylamino)propyl)-6,16-dioctyl-7,15-dioxo-8,14-dioxa-6,11,16-triazahenicosanedioate] | 136 nm | 93% | 11.39
CCCCCCCCN(CCCCC(=O)OCC(CCCCCC)CCCCCC)C(=O)OCCN(CCCCN(CC)CC)CCOC(=O)N(CCCCCCCC)CCCCC(=O)OCC(CCCCCC)CCCCCC [Example 38, bis(2-hexyloctyl) 11-(4-(diethylamino)butyl)-6,16-dioctyl-7,15-dioxo-8,14-dioxa-6,11,16-triazahenicosanedioate] | 137 nm | 93% | 9.99
CCCCCCCCN(CCCCC(=O)OCCCCCCC)C(=O)OCCN(CCOC(=O)N(CCCCCCCC)CCCCC(=O)OCC(CCCCCC)CCCCCC)CCN(CC)CC [Example 40, 1-Heptyl 21-(2-hexyloctyl) 11-(2-(diethylamino)ethyl)-6,16-dioctyl-7,15-dioxo-8,14-dioxa-6,11,16-triazahenicosanedioate] | 162 nm | 74% | 8.10
CCCCCCCCOC(=O)CCCCN(CCCCCCCC)C(=O)OCCN(CCOC(=O)N(CCCCCCCC)CCCCC(=O)OCC(CCCCCC)CCCCCC)CCN(CC)CC [Example 42, 1-(2-Hexyloctyl) 21-octyl 11-(2-(diethylamino)ethyl)-6,16-dioctyl-7,15-dioxo-8,14-dioxa-6,11,16-triazahenicosanedioate] | 154 nm | 82% | 6.39
CCCCCCCN(CCCCCC(=O)OCC(CCCCC)CCCCC)C(=O)OCCN(CCOC(=O)N(CCCCCCC)CCCCCC(=O)OCC(CCCCC)CCCCC)CCN(CC)CC [Example 45, Bis(2-pentylheptyl) 12-(2-(diethylamino)ethyl)-7,17-diheptyl-8,16-dioxo-9,15-dioxa-7,12,17-triazatricosanedioate] | 84 nm | 95% | 2.19
CCCCCC(CCCCC)COC(=O)CCCCCN(CCCCC)C(=O)OCCN(CCOC(=O)N(CCCCC)CCCCCC(=O)OCC(CCCCC)CCCCC)CCN(CC)CC [Example 46, Bis(2-pentylheptyl) 12-(2-(diethylamino)ethyl)-8,16-dioxo-7,17-dipentyl-9,15-dioxa-7,12,17-triazatricosanedioate] | 104 nm | 93% | 1.54
CCCCCCC(CCCCCC)COC(=O)CCCCCN(CCCC)C(=O)OCCN(CCOC(=O)N(CCCC)CCCCCC(=O)OCC(CCCCCC)CCCCCC)CCN(CC)CC [Example 47, Bis(2-hexyloctyl) 7,17-dibutyl-12-(2-(diethylamino)ethyl)-8,16-dioxo-9,15-dioxa-7,12,17-triazatricosanedioate] | 114 nm | 91% | 1.46
CCCCCCCN(CCCCCC(=O)OCC(CCCCC)CCCCC)C(=O)OCCN(CCCN(CC)CC)CCOC(=O)N(CCCCCCC)CCCCCC(=O)OCC(CCCCC)CCCCC [Example 48, Bis(2-pentylheptyl) 12-(3-(diethylamino)propyl)-7,17-diheptyl-8,16-dioxo-9,15-dioxa-7,12,17-triazatricosanedioate] | 90 nm | 96% | 2.26
CCCCCC(CCCCC)COC(=O)CCCCCN(CCCCC)C(=O)OCCN(CCCN(CC)CC)CCOC(=O)N(CCCCC)CCCCCC(=O)OCC(CCCCC)CCCCC [Example 49, bis(2-pentylheptyl) 12-(3-(diethylamino)propyl)-8,16-dioxo-7,17-dipentyl-9,15-dioxa-7,12,17-triazatricosanedioate] | 126 nm | 94% | 1.12
CCCCCCCCN(CCCCCC(=O)OCC(CCCCC)CCCCC)C(=O)OCCN(CCOC(=O)N(CCCCCCCC)CCCCCC(=O)OCC(CCCCC)CCCCC)CCN(CC)CC [Example 50, bis(2-pentylheptyl) 12-(2-(diethylamino)ethyl)-7,17-dioctyl-8,16-dioxo-9,15-dioxa-7,12,17-triazatricosanedioate] | 82 nm | 96% | 1.55
